Tests used:
[1] = Stability test of the crystal form (stress, long-term and accelerated test); format: physicochemical
Procedure: Stress test, long-term stable test and accelerated stability test of the compound with the crystal form:
The stability of the compound with such a crystal form was investigated under conditions of a high temperature (60° C.), high humidity (92.5% RH), strong light irradiation (5 Klx), 40° C./75% RH (for accelerated test) and 25° C./60% RH (for long term test), in accordance with “Guidelines for Stability Testing of bulk pharmaceutical chemicals and formulation” (Chinese Pharmacopoeia 2015 Edition, four main sections of general requirements 9001).
10 mg of the crystalline sample involved in the Examples of the present invention was accurately weighed and placed on the bottom of a glass sample vial, and then spread out to form a thin layer. The samples for test under high temperature and high humidity conditions and for the long-term test were contained in vials sealed with aluminum-foil paper, and some small holes were made on the aluminum-foil paper to ensure that the sample can be fully in contact with ambient conditions; The samples for test under strong light irradiation and for the accelerated test were contained in vials sealed with screw bottle caps. The samples placed under different conditions were taken and analyzed on day 5, 10, and 30, and the analysis results were compared with the initial test results on day 0.

[2] = system: mice after neuropathic pain; experiment: Elevated plus maze test (EPM), neuropathic pain; format: in vivo; details: 3 mg/kg IP, 3 mg/kg
Procedure: An anxious animal model of the prior art—the elevated plus maze test (EPM) was adopted. The mice were acclimated for 30 minutes in the room prior to the behavior observation. The EPM was composed of two open arms (250 lux) and two closed arms (350 lux) arranged opposite to each other. For each test, an individual animal was placed at the center of the test position and allowed to move freely. The test is carried out for 5 minutes. The number of entering the test position for each arm and the time spent therefore were recorded.
The other two sets of tests were conducted to test the effect of the crystal of the present invention on inhibiting anxiety caused by chronic pain and neuropathic pain.
The EPM test tested the anxiety behavior of mice after the test treatment. The physiological saline, non-crystalline NB001 (3 mg/kg), the crystal of the present invention (3 mg/kg), and Gabapentin (30 mg/kg) as a positive control were intraperitoneally injected (IP) into the mice treated with yeast polysaccharide respectively. The behaviors of Mice were observed 28 days after the yeast polysaccharide treatment.

[3] = Accelerated test (40° C./75% RH), Day 30
[4] = Long-term test (25° C./60% RH), Day 30
[5] = Stress test, high humidity (92.5% RH), Day 5
[6] = Stress test, high humidity (92.5% RH), Day 10
[7] = Stress test, high humidity (92.5% RH), Day 30
[8] = Stress test, high temperature (60° C.), Day 5
[9] = Stress test, high temperature (60° C.), Day 10
[10] = Stress test, high temperature (60° C.), Day 30
[11] = Stress test, strong light irradiation (5 Klx), Day 10

Nc1ncnc2c1ncn2CCNCCCCCO [New NB001, 5-(((2-(6-amino)-9H-purin-9-yl)ethyl)amino)pentan-1-ol]
Characteristics [1, 3]: off-white powder | Content (%) [1, 3]: 99.51% | Total Impurities (%) [1, 3]: 0.49% | Characteristics ([1]; Day 0): off-white powder | Content (%) ([1]; Day 0): 99.39% | Total Impurities (%) ([1]; Day 0): 0.61% | Characteristics [1, 4]: off-white powder | Content (%) [1, 4]: off- | Total Impurities (%) [1, 4]: 0.60% | Characteristics [1, 5]: off-white powder | Content (%) [1, 5]: 99.51% | Total Impurities (%) [1, 5]: 0.49% | Characteristics [1, 6]: off-white powder | Content (%) [1, 6]: 99.41% | Total Impurities (%) [1, 6]: 0.59% | Characteristics [1, 7]: off-white powder | Content (%) [1, 7]: 99.53% | Total Impurities (%) [1, 7]: 0.47% | Characteristics [1, 8]: off-white powder | Content (%) [1, 8]: 99.47% | Total Impurities (%) [1, 8]: 0.53% | Characteristics [1, 9]: off-white powder | Content (%) [1, 9]: 99.52% | Total Impurities (%) [1, 9]: 0.48% | Characteristics [1, 10]: off-white powder | Content (%) [1, 10]: 99.43% | Total Impurities (%) [1, 10]: 0.57% | Characteristics [1, 11]: off-white powder | Content (%) [1, 11]: 99.48% | Total Impurities (%) [1, 11]: 0.52% | stability under various test conditions ([1]; all test conditions of Table 5): good | % time in the open arm [2]: 18.5 ± 1.4 (8) %
